# Measured values as given in ChEMBL document CHEMBL4002572, “Development of CXCR4 modulators by virtual HTS of a novel amide-sulfamide compound library” (Eur J Med Chem, 2017).
# Activity calls are given as the source filed them. The rule behind the calls is not given here.
# Tests used:
# [1] = target: C-X-C chemokine receptor type 4 (Homo sapiens) (UniProt P61073); assay: Displacement of biotinylated-TN14003 from CXCR4 in human MDA-MB-231 cells assessed as reduction in fluorescence preincubated for 10 mins followed by biotinylated-TN14003 addition measured after 30 mins by streptavidin-rhodamine staining based microscopic analysis; type: cell-based
# Sequence of C-X-C chemokine receptor type 4 (Homo sapiens) (P61073 whole entry): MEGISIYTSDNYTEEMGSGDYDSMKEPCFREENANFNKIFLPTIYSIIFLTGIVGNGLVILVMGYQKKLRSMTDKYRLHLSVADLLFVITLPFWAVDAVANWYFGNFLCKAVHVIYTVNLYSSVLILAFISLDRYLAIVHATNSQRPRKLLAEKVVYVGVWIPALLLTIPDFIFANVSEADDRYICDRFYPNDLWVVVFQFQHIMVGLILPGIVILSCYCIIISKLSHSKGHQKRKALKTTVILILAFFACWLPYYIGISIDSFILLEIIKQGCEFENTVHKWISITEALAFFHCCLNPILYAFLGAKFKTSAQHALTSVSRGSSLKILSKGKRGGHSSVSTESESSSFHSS
# Mus musculus [2] = assay: Anti-inflammatory activity in mouse assessed as inhibition of xylene-induced ear edema at 10 mg/kg, ip administered 30 mins post xylene challenge measured after 2 hrs relative to control; type: functional
# [3] = target: C-X-C chemokine receptor type 4 (Homo sapiens) (UniProt P61073); assay: Inhibition of CXCR4/CXCL12 interaction-mediated chemotaxis in human MDA-MB-231 cells assessed as inhibition of cell invasion at 100 nM after 22 hrs by hematoxylin/eosin dye-based matrigel assay relative to control
# Mus musculus [4] = assay: Anti-inflammatory activity in Swiss albino mouse assessed as inhibition of xylene-induced ear edema at 30 mg/kg, ip pretreated for 1 hr followed by xylene challenge measured after 30 mins relative to control; type: functional
# [5] = target: C-X-C chemokine receptor type 4 (Homo sapiens) (UniProt P61073); assay: Potency index, ratio of AMD3100 EC to compound EC for displacement of biotinylated TN14003 from CXCR4 in human MDA-MB-231 cells; type: cell-based
# Mus musculus [6] = assay: Anti-inflammatory activity in xylene-induced ear edema mouse model assessed as reduction in inflammatory cells at 10 mg/kg, ip administered 30 mins post xylene challenge measured after 2 hrs by hematoxylin/eosin dye-based assay; type: functional, organism-based
# [7] = target: C-X-C chemokine receptor type 4 (Mus musculus) (UniProt P70658); assay: Inhibition of CXCR4 in mouse J774A.1 cells assessed as reduction in Crohn's disease-associated Escherichia coli 131 infection-induced TNF-alpha level at 200 nM relative to control; type: cell-based
# Sequence of C-X-C chemokine receptor type 4 (Mus musculus) (P70658 whole entry): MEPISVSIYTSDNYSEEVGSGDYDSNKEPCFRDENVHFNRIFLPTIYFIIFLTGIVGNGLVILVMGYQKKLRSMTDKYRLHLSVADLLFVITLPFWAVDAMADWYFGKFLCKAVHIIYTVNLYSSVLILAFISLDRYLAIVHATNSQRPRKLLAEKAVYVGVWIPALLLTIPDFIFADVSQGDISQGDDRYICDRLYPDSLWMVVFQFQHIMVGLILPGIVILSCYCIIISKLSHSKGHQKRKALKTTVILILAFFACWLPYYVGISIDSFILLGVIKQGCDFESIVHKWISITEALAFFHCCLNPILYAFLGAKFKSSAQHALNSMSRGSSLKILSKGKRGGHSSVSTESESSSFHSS
# MDA-MB-231 = assay: Cytotoxicity against human MDA-MB-231 cells assessed as cell viability at 10 uM measured after 24 hrs by MTT assay; type: cell-based; details: mda-mb-231, 24 h
# Mus musculus [8] = assay: Anti-inflammatory activity in xylene-induced ear edema mouse model assessed as reduction in edema volume at 10 mg/kg, ip administered 30 mins post xylene challenge measured after 2 hrs by hematoxylin/eosin dye-based assay; type: functional, organism-based
# Mus musculus [9] = assay: Anti-inflammatory activity in xylene-induced ear edema mouse model assessed as reduction in ear thickness at 10 mg/kg, ip administered 30 mins post xylene challenge measured after 2 hrs by hematoxylin/eosin dye-based assay; type: functional, organism-based
# [10] = target: C-X-C chemokine receptor type 4 (Homo sapiens) (UniProt P61073); assay: Inhibition of CXCR4/CXCL12 (unknown origin) interaction-mediated Akt phosphorylation by western blot analysis
SMILES,EC [1],inhibition in vivo at 10 mg/kg (Mus musculus [2]),inhibition [3],other results
O=C(NCc1ccc(CNS(=O)(=O)c2ccc3c(c2)CCO3)cc1)c1scc2c1OCCO2,10 nM,0%,68%,
Cc1ccc(-c2cc(C(F)(F)F)nn2-c2ccc(S(N)(=O)=O)cc2)cc1 [CELECOXIB],,,,inhibition in vivo at 30 mg/kg (Mus musculus [4]): 47%
O=C(NCc1ccc(CNS(=O)(=O)c2ccc3c(c2)CCO3)cc1)c1cc2ccccn2n1,1 nM,,40%,Ratio [5]: 1000
O=C(NCc1ccc(CNS(=O)(=O)c2ccc(F)c(F)c2)cc1)c1cnc2ccccn12,> 1000 nM,,,
Cc1cc(C(=O)NCc2ccc(CNS(=O)(=O)c3ccc4c(c3)CCO4)cc2)n(C)n1,1000 nM,35%,Active,
O=C(NCc1ccc(CNS(=O)(=O)c2ccc3c(c2)CCO3)cc1)c1cccnc1,1000 nM,10%,60%,
c1cc(CN2CCCNCCNCCCNCC2)ccc1CN1CCCNCCNCCCNCC1,,,55%,
O=C(NCc1ccc(CNS(=O)(=O)c2ccc(F)cc2F)cc1)c1ncc[nH]1,> 1000 nM,,,
O=C(NCc1ccc(CNS(=O)(=O)c2ccc(F)cc2F)cc1)c1cncnc1,1 nM,56%,74%,Activity (Mus musculus [6]): Active; inhibition [7]: 67%; Activity (MDA-MB-231): Non-Toxic; Activity (Mus musculus [8]): Active; Ratio [5]: 1000; Activity (Mus musculus [9]): Active; inhibition [10]: Dose-dependent effect
O=C(NCc1ccc(CNS(=O)(=O)c2ccccc2F)cc1)c1cc2ccccn2n1,100 nM,,40%,
O=C(NCc1ccc(CNS(=O)(=O)c2ccc3c(c2)CCO3)cc1)c1cccc2c1COC2,1000 nM,,40%,
Cn1nccc1C(=O)NCc1ccc(CNS(=O)(=O)c2ccc3c(c2)CCO3)cc1,1000 nM,38%,40%,
Cc1nnsc1C(=O)NCc1ccc(CNS(=O)(=O)c2ccc(F)c(F)c2)cc1,10 nM,54%,40%,Activity (Mus musculus [6]): Active; Activity (Mus musculus [8]): Active; Activity (Mus musculus [9]): Active
O=C(NCc1ccc(CNS(=O)(=O)c2cccc(F)c2)cc1)c1cc2ccccn2n1,1000 nM,,40%,
